In paper PMC11346428, “Biophysical and structural analyses of the interaction between the SHANK1 PDZ domain and an internal SLiM” (Biochemical Journal, 2024):
Residues, ends and D or L forms follow the SMILES beside them. *: point of attachment. 5FAM = O=C1OC2(c3ccc(O)cc3Oc3cc(O)ccc32)c2ccc(C(=O)*)cc21; Ahx = NCCCCCC(=O)O

What was measured:
[1] = target: T1, SHANK1 PDZ domain (656–762) (Homo sapiens, UniProt Q9Y566); assay: Fluorescence anisotropy direct titration; type: binding; details: 50 mM NH4OAc, pH 6.5
T1 construct: Human SHANK1 PDZ domain (656–762) was prepared as described previously; GST (N, cleaved yes); made in house; host or cells: E. coli BL21 Gold (pGEX-6P-2)
T1 sequence (Q9Y566 656-762): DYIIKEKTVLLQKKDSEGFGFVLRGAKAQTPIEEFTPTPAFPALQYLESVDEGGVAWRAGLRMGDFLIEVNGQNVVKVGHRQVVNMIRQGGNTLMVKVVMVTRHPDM
Experimental: Direct titration assays were performed in 384-well plates (Greiner Bio-one). Two hundred micromolars of SHANK1 protein was dialyzed into the assay buffer before use. Twenty microlitres of the assay buffer (50 mM ammonium-acetate, pH 6.5) was first added to each well. Twenty microlitres of the target protein sample was then added to the first column, followed by a two-fold serial dilution over 24 points. Twenty microlitres of 50 nM tracer peptide or 20 µl of the assay buffer was added to the corresponding row wells. The titration was performed in triplicate. […] The P (perpendicular intensity) and S (parallel intensity) channels raw data were obtained. The data processing and formulae are shown in the Supporting Information 2.6.
(§1) . Reversed Phase C18 column, mobile phase A (0.1% TFA in water), mobile phase B
2.6 Equations for data calculation in fluorescent anisotropy direct titration The intensity and anisotropy were calculated by using Equations 1 and 2. The data was fitted to a sigmoidal logistic model to obtain r min and rmax, and the L b was further calculated (Equation 3). Finally, the data was fitted to a nonlinear curve model (Equation 4), to obtain the value of KD.
I = total intensity, r = anisotropy, P = perpendicular intensity, S = parallel intensity, G is an instrument gain factor, L b = fraction ligand bound, λ = Ibound/Iunbound = 1, [FL] = concentration of fluorescent ligand, k = K D and x = [added titrant].
2.7 Equations for data calculation in fluorescent anisotropy competition assays The calculated average anisotropy values and their standard deviation were fitted using a sigmoidal logistic model (Equation 5). y = r = anisotropy, xo = mid-point of the curve between the r max and rmin plateau. […]

[2] = target: T1, SHANK1 PDZ domain (656–762); assay: Fluorescence anisotropy competition assay; type: binding; details: 50 nM tracer, 1 μM SHANK1, 50 mM NH4OAc, pH 6.5, triplicate
Experimental: FA competition assays were also performed in 50 mM NH4OAc, pH 6.5 buffer in 384-well plates. Twenty microlitres of the assay buffer was first added to wells. Twenty microlitres of 5000 µM competitor peptides was added to the first columns, followed by a twofold serial dilution over 16 points. Three micromolars of SHANK1 protein was dialyzed into the assay buffer before use. Twenty microlitres of the SHANK1 protein was added to each well to give a final protein concentration of 1 μM. Twenty microlitres of 50 nM tracer peptides or 20 µl of the assay buffer was added to corresponding row wells. The titration was performed in triplicate. Plates were read immediately with an excitation and emission wavelength of 480 and 535 nm respectively (dichroic mirror 505 nm), and after an hour or after 24 h on the plate reader with the same parameters as described above. The data processing and formulae are shown in the Supporting Information 2.7.
Time (min) Mobile phase A (%) Mobile phase B (%) Flow (mL/min) […]
as §1
2.6 Equations for data calculation in fluorescent anisotropy direct titration The intensity and anisotropy were calculated by using Equations 1 and 2. The data was fitted to a sigmoidal logistic model to obtain r min and rmax, and the L b was further calculated (Equation 3). […]

[3] = target: T1, SHANK1 PDZ domain (656–762); assay: Isothermal titration calorimetry (ITC); details: 25 mM Tris, pH 7.5, 150 mM NaCl, 25°C; 500 μM peptide injected into 50 μM protein; one-binding site model
Experimental: A Microcal ITC200i instrument (Malvern) was employed to carry out the ITC experiments. Prior to use, SHANK1 protein was dialyzed against 20 mM Tris, 150 mM NaCl, pH 7.5 buffer. […] Sixty microlitres of every test peptide was placed in the syringe to titrate against 350 µl of 50 µM Shank1 protein in the cell. The injection volumes were 2 µl each, injection time 6 s, and a 120 s delay between each injection for 20 injections in total. The titration for peptide into buffer was subtracted from the titration for peptide into protein to account for the heat of peptide dilution. Raw data was processed in the software Microcal Origin 8 and fit to a one-binding site model.

Ac-EESTSFQGP-CONH2 = target: T2, Ac-EESTSFQGP-CONH2; assay: fluorescence anisotropy competition (tracer FAM-Ahx-EESTSFQGP-CONH2)
T2 chain: Ac-EESTSFQGP-NH2

FAM-Ahx-EESTSFQGP-CONH2 = target: T3, FAM-Ahx-EESTSFQGP-CONH2; assay: fluorescence anisotropy direct titration
T3 chain: {FAM-Ahx}-EESTSFQGP-NH2

[4] = 50 nM labelled peptide as tracer, plates read after 24 hr incubation at room temperature, read-out: KD (FA direct titration, Figure S1)

A Kd ([1]; FA direct titration of SHANK1 into 50 nM tracer peptide, 25°C, triplicate, read-out: KD) of 0.81 ± 0.08 µM was found for C[C@@H](O)[C@H](NC(=O)[C@H](CO)NC(=O)[C@H](CCC(=O)O)NC(=O)[C@H](CCC(=O)O)NC(=O)CCCCCNC(=O)c1ccc2c(c1)C(=O)OC21c2ccc(O)cc2Oc2cc(O)ccc21)C(=O)N[C@@H](CO)C(=O)N[C@@H](Cc1ccccc1)C(=O)N[C@@H](CCC(N)=O)C(=O)NCC(=O)N1CCC[C@H]1C(N)=O ({5FAM-Ahx}-EESTSFQGP-NH2) in this work.

A Kd [1, 4] of 12.2 ± 8.3 µM was found for CC[C@H](C)[C@H](NC(=O)[C@H](CC(C)C)NC(=O)[C@H](CCC(=O)O)NC(=O)[C@@H]1CCCN1C(=O)[C@H](Cc1ccccc1)NC(=O)CCCCCNC(=O)c1ccc2c(c1)C(=O)OC21c2ccc(O)cc2Oc2cc(O)ccc21)C(=O)N[C@@H](CCC(N)=O)C(=O)N[C@@H](CC(=O)O)C(=O)N[C@H](C(=O)N[C@@H](CO)C(=O)N[C@H](C(=O)N[C@@H](CO)C(=O)N[C@@H](Cc1ccccc1)C(=O)N[C@@H](CO)C(=O)N[C@H](C(=O)N[C@H](C(=O)N[C@@H](CCCNC(=N)N)C(N)=O)[C@@H](C)O)[C@@H](C)O)[C@@H](C)O)[C@@H](C)O [FAM-Ahx-ARAP31414-1429-CONH2] ({5FAM-Ahx}-FPELIQDTSTSFSTTR-NH2) in this work.

A Kd [1, 4] of 3.6 ± 0.7 µM was found for CC(C)[C@H](NC(=O)CNC(=O)[C@H](CCC(N)=O)NC(=O)[C@H](Cc1ccccc1)NC(=O)[C@H](CO)NC(=O)[C@@H](NC(=O)[C@H](CO)NC(=O)[C@H](CCC(=O)O)NC(=O)CCCCCNC(=O)c1ccc2c(c1)C(=O)OC21c2ccc(O)cc2Oc2cc(O)ccc21)[C@@H](C)O)C(=O)N[C@@H](CCCCN)C(=O)N[C@@H](CO)C(=O)NCC(=O)N1CCC[C@H]1C(=O)N[C@H](C(=O)N[C@@H](CO)C(=O)N[C@H](C(=O)N[C@@H](C)C(N)=O)C(C)C)C(C)C [FAM-Ahx-ELFN1579-594-CONH2] ({5FAM-Ahx}-ESTSFQGVKSGPVSVA-NH2) in this work.

An IC50 ([2]; competition against SHANK1/FAM-Ahx-EESTSFQGP-CONH2 interaction) of 3.9 ± 0.1 µM, an IC50 ([2]; competition against SHANK1/FITC-Ahx-EAQTRL-COOH interaction) of 3.3 ± 0.2 µM and a Kd [3] of 0.96 µM were found for Ac-EESTSFQGP-NH2 in this work.

B1: SHANK1 PDZ domain 656-762 (protein)
chain: DYIIKEKTVLLQKKDSEGFGFVLRGAKAQTPIEEFTPTPAFPALQYLESVDEGGVAWRAGLRMGDFLIEVNGQNVVKVGHRQVVNMIRQGGNTLMVKVVMVTRHPDM
An IC50 (Ac-EESTSFQGP-CONH2) of 3.9 µM and a Kd (FAM-Ahx-EESTSFQGP-CONH2) of 0.81 µM were found for B1 in this work.
